Measured values from ChEMBL document CHEMBL6134824, “LPS-enriched interaction drives spectrum conversion in antimicrobial peptides: Design and optimization of AA16 derivatives for targeting gram-negative bacteria” (Eur J Med Chem, 2025).
Activity calls are given as the source filed them. The rule behind the calls is not given here.

Columns and labels:
Cell membrane [1] = assay: Induction of cytoplasmic membrane depolarization in Pseudomonas aeruginosa assessed as change in fluorescence intensity by DISC3-5 dye based fluorescence analysis; type: subcellular
Cell membrane [2] = assay: Induction of cytoplasmic membrane depolarization in […] assessed as increase in fluorescence intensity by DISC3-5 dye based fluorescence analysis; type: subcellular
Escherichia coli = assay: Antibacterial activity against Escherichia coli NCTC 10418 incubated for 16 hrs under shaking condition by standard broth microdilution method; type: functional
[3] = Hemolytic activity at horse Erythrocyte assessed as hemolysis; type: toxicity, cell-based, Equus caballus; conditions: horse erythrocytes
Cell membrane [4] = assay: Induction of inner membrane disruption in Pseudomonas aeruginosa assessed as fluorescence intensity at 8 times MIC by DISC3-5 dye based fluorescence analysis; type: subcellular
Cell membrane [5] = assay: Induction of inner membrane disruption in […] assessed as change in fluorescence intensity at 8 times MIC by DISC3-5 dye based fluorescence analysis; type: subcellular
Cell membrane [6] = assay: Induction of cytoplasmic membrane depolarization in […] assessed as change in fluorescence intensity by DISC3-5 dye based fluorescence analysis; type: subcellular
Staphylococcus aureus [7] = assay: Antibacterial activity against Staphylococcus aureus NCTC 10788 incubated for 16 hrs under shaking condition by standard broth microdilution method; type: functional
Staphylococcus aureus [8] = assay: Antibacterial activity against methicillin-resistant Staphylococcus aureus ATCC 43300 incubated for 16 hrs under shaking condition by standard broth microdilution method; type: functional
[9] = Hemolytic activity at mouse Red blood cell assessed as hemolysis; type: toxicity, cell-based; conditions: erythrocyte
Cell membrane [10] = assay: Disruption of cell membrane integrity in methicillin-resistant Staphylococcus aureus assessed as reduction in green to red fluorescence by STYO 9 and PI staining based confocal microscopy analysis; type: subcellular
Pseudomonas aeruginosa = assay: Antibacterial activity against Pseudomonas aeruginosa ATCC 27853 incubated for 16 hrs under shaking condition by standard broth microdilution method; type: functional
Cell membrane [11] = assay: Disruption of cell membrane integrity in Staphylococcus aureus assessed as reduction in green to red fluorescence by STYO 9 and PI staining based confocal microscopy analysis; type: subcellular

Substance | Activity (Cell membrane [1]) | Activity (Cell membrane [2]) | MIC (Escherichia coli) [µg/mL] | HC50 [3] [µg/mL] | Flu intensity (Cell membrane [4]) | Activity (Cell membrane [5]) | Activity (Cell membrane [6]) | MIC (Staphylococcus aureus [7]) [µg/mL] | MIC (Staphylococcus aureus [8]) [µg/mL] | MHC [9] [µg/mL] | Activity (Cell membrane [10]) | MIC (Pseudomonas aeruginosa) [µg/mL] | Activity (Cell membrane [11])
Ac-AARILSRILRRALRVL-NH2 | Active | Active | 4 | 155 | 2300 | Active | Active | 4 | 16 | 155 | Active | 8 | Active
Ac-AARILSRILSGALRVL-NH2 | – | Active | 16 | 161 | – | – | – | 4 | 4 | 161 | – | 64 | –
Ac-AARIPSRILFFALVRL-NH2 | – | Active | 64 | > 512 | – | – | – | 16 | 16 | > 512 | – | > 512 | –
